Assay results reported in PubChem BioAssay AID344 (DTP/NCI, 2004).
Where “and” joins values, the source holds several entries; their conditions need not be identical. Identical values can stand only once. Inconclusive results and toxic doses are left out.

Tested on: mice, LPC-1 plasma cell tumor ip, median survival T/C
Test: NCI In Vivo Anticancer Drug Screen. Data for tumor model Lieberman Plasma Cell No. 1 (LPC-1) (intraperitoneal) in unknown mice
Conditions: endpoint: median survival time, higher = longer survival
Protocol: The antitumor activity of compounds was measured in mice bearing transplantable tumors. Survival or tumor size were measured and the results are expressed as the measurement made in the treated group (T) divided by the measurement made in the vehicle treated control group (C). The tumor model used in this assay is Lieberman Plasma Cell No. 1 (LPC-1) (intraperitoneal) in unknown mice

For `O=C(O)CCCc1ccc(N(CCCl)CCCl)cc1`, the T/C (dose: 1.0 mg/kg/injection, schedule: Q01DX007 (sc), vehicle: saline) was 93 % of control, the T/C (dose: 2.0 mg/kg/injection, schedule: Q01DX007 (sc), vehicle: saline) was 109 % of control and the T/C (dose: 3.0 mg/kg/injection, schedule: Q01DX028 (sc), vehicle: methylcellulose (MC)) was 95 % of control. For the same compound, the T/C (dose: 4.0 mg/kg/injection, schedule: Q01DX007 (sc), vehicle: saline) was 118 % of control, the T/C (dose: 5.0 mg/kg/injection, schedule: Q01DX028 (sc), vehicle: methylcellulose (MC)) was 97 % of control and the T/C (dose: 8.4 mg/kg/injection, schedule: Q01DX028 (sc), vehicle: methylcellulose (MC)) was 100 % of control. For the same compound, the T/C (dose: 14.0 mg/kg/injection, schedule: Q01DX028 (sc), vehicle: methylcellulose (MC)) was 113 % of control and the T/C (dose: 16.0 mg/kg/injection, schedule: Q01DX007 (sc), vehicle: saline) was 112 % of control.
With `O=P1(N(CCCl)CCCl)NCCCO1` (stereo unspecified) the T/C (dose: 2.0 mg/kg/injection, schedule: Q01DX028 (sc), vehicle: saline) was 86 % of control, the T/C (dose: 3.12 mg/kg/injection, schedule: Q01DX028 (sc), vehicle: saline) was 109 % of control and the T/C (dose: 4.0 mg/kg/injection, schedule: Q01DX028 (sc), vehicle: saline) was 100 % of control. For the same compound, the T/C (dose: 6.0 mg/kg/injection, schedule: Q01DX028 (sc), vehicle: saline) was 114 % of control, the T/C (dose: 8.0 mg/kg/injection, schedule: Q01DX028 (sc), vehicle: saline) was 161 % of control and the T/C (dose: 8.4 mg/kg/injection, schedule: Q01DX028 (sc), vehicle: saline) was 182 % of control and 184 % of control and 213 % of control. For the same compound, the T/C (dose: 10.0 mg/kg/injection, schedule: Q01DX Z (sc), vehicle: saline) was 194 % of control, the T/C (dose: 12.0 mg/kg/injection, schedule: Q01DX028 (sc), vehicle: saline) was 243 % of control and the T/C (dose: 12.5 mg/kg/injection, schedule: Q01DX011 (sc), vehicle: saline) was 190 % of control. For the same compound, the T/C (dose: 12.5 mg/kg/injection, schedule: Q01DX024 (sc), vehicle: saline) was 229 % of control, the T/C (dose: 14.0 mg/kg/injection, schedule: Q01DX Z (sc), vehicle: saline) was 190 % of control and the T/C (dose: 15.62 mg/kg/injection, schedule: Q01DX010 (sc), vehicle: saline) was 150 % of control. For the same compound, the T/C (dose: 16.0 mg/kg/injection, schedule: Q01DX028 (sc), vehicle: saline) was 167 % of control and 212 % of control, the T/C (dose: 20.0 mg/kg/injection, schedule: Q01DX Z (sc), vehicle: saline) was 155 % of control and the T/C (dose: 23.0 mg/kg/injection, schedule: Q01DX Z (sc), vehicle: saline) was 166 % of control. For the same compound, the T/C (dose: 24.0 mg/kg/injection, schedule: Q01DX028 (sc), vehicle: saline) was 114 % of control, the T/C (dose: 25.0 mg/kg/injection, schedule: Q01DX011 (sc), vehicle: saline) was 190 % of control and the T/C (dose: 25.0 mg/kg/injection, schedule: Q01DX015 (sc), vehicle: saline) was 91 % of control. The T/C (dose: 25.0 mg/kg/injection, schedule: Q01DX024 (sc), vehicle: saline) was 244 % of control, the T/C (dose: 31.25 mg/kg/injection, schedule: Q01DX010 (sc), vehicle: saline) was 186 % of control and the T/C (dose: 32.0 mg/kg/injection, schedule: Q01DX028 (sc), vehicle: saline) was 200 % of control and 208 % of control. The T/C (dose: 39.0 mg/kg/injection, schedule: Q01DX009 (sc), vehicle: saline) was 154 % of control, the T/C (dose: 39.0 mg/kg/injection, schedule: Q01DX Z (sc), vehicle: saline) was 150 % of control and the T/C (dose: 48.0 mg/kg/injection, schedule: Q01DX028 (sc), vehicle: saline) was 100 % of control. For the same compound, the T/C (dose: 50.0 mg/kg/injection, schedule: Q01DX009 (ip), vehicle: saline) was 259 % of control and 88 % of control, the T/C (dose: 50.0 mg/kg/injection, schedule: Q01DX011 (sc), vehicle: saline) was 190 % of control and the T/C (dose: 50.0 mg/kg/injection, schedule: Q01DX015 (sc), vehicle: saline) was 211 % of control. The T/C (dose: 50.0 mg/kg/injection, schedule: Q01DX024 (sc), vehicle: saline) was 223 % of control, the T/C (dose: 64.0 mg/kg/injection, schedule: Q01DX028 (sc), vehicle: saline) was 168 % of control and the T/C (dose: 65.0 mg/kg/injection, schedule: Q07DX004 (sc), vehicle: saline) was 197 % of control. For the same compound, the T/C (dose: 125.0 mg/kg/injection, schedule: Q01DX010 (sc), vehicle: saline) was 100 % of control, the T/C (dose: 128.0 mg/kg/injection, schedule: Q01DX028 (sc), vehicle: saline) was 97 % of control and the T/C (dose: 180.0 mg/kg/injection, schedule: Q01DX028 (sc), vehicle: saline) was 97 % of control.
In the case of `C/C(=N\N=C(N)N)c1ccc(NC(=O)Nc2ccc(/C(C)=N/N=C(N)N)cc2)cc1`, the T/C (dose: 10.0 mg/kg/injection, schedule: Q01DX028 (sc), vehicle: carboxymethylcellulose (CMC)) is reported as 94 % of control, the T/C (dose: 20.0 mg/kg/injection, schedule: Q01DX028 (sc), vehicle: carboxymethylcellulose (CMC)) is reported as 102 % of control and the T/C (dose: 40.0 mg/kg/injection, schedule: Q01DX028 (sc), vehicle: carboxymethylcellulose (CMC)) is reported as 105 % of control. The T/C (dose: 80.0 mg/kg/injection, schedule: Q01DX028 (sc), vehicle: carboxymethylcellulose (CMC)) was 100 % of control.
For `O=CN(O)CC(=O)O`, the T/C (dose: 65.0 mg/kg/injection, schedule: Q01DX028 (sc), vehicle: carboxymethylcellulose (CMC)) was 93 % of control, the T/C (dose: 108.0 mg/kg/injection, schedule: Q01DX028 (sc), vehicle: carboxymethylcellulose (CMC)) was 90 % of control and the T/C (dose: 180.0 mg/kg/injection, schedule: Q01DX028 (sc), vehicle: carboxymethylcellulose (CMC)) was 90 % of control. The T/C (dose: 300.0 mg/kg/injection, schedule: Q01DX028 (sc), vehicle: carboxymethylcellulose (CMC)) was 93 % of control, the T/C (dose: 500.0 mg/kg/injection, schedule: Q01DX028 (sc), vehicle: carboxymethylcellulose (CMC)) was 95 % of control and the T/C (dose: 833.0 mg/kg/injection, schedule: Q01DX028 (sc), vehicle: carboxymethylcellulose (CMC)) was 95 % of control.
